From patent publication US8329735B2, “Tetrazole compounds which selectively modulate the CB2 receptor” (Boehringer Ingelheim International GmbH, priority 2010, dated 2012) come the findings set out here.

In brackets after ≈: the same amount, converted by molar mass. Like-named read-outs stand apart in the source and are kept apart here.

Series [1] deals with T1, human CB2R (Homo sapiens, UniProt P34972).
T1 construct: host or cells: CHO cells
The experiment in a line: CB2R mediated modulation of cAMP synthesis. Format: cell-based. As to the method:
Compounds of the invention are evaluated for their CB2 agonist or inverse agonistic activity in accordance with the following experimental method.
(§1) CHO cells expressing human CB2R (Euroscreen) are plated at a density of 5000 cells per well in 384 well plates and incubated overnight at 37° C. After removing the media, the cells are treated with test compounds diluted in stimulation buffer containing 1 mM IBMX, 0.25% BSA and 10 uM Forskolin. The assay is incubated for 30 minutes at 37° C. Cells are lysed and the cAMP concentration is measured using DiscoverX—XS cAMP kit, following the manufacturer's protocol. In this setting, agonists will decrease forskolin induced production of cAMP while inverse agonists will further increase forskolin induced production of cAMP. EC50 of agonists are calculated as follows. The maximal amount of cAMP produced by forskolin compared to the level of cAMP inhibited by 1 uM CP55940 is defined as 100%. The EC50 value of each test compound is determined as the concentration at which 50% of the forskolin-stimulated cAMP synthesis is inhibited. Data is analyzed using a four-parameter logistic model. (Model 205 of XLfit 4.0).

In series [2] the target is T2, human CB1R (Homo sapiens, UniProt P21554).
T2 construct: host or cells: CHO cells
The experiment in a line: CB1R mediated modulation of cAMP synthesis. It is filed as cell-based. The following applies: CHO cells expressing human CB1R, forskolin-stimulated cAMP. As to the method:
Compounds of the invention are evaluated for their CB1 agonist or inverse agonistic activity in accordance with the following experimental method.
as §1, with “CB1R” for “CB2R”

Series [3] is described as follows: Human microsomal stability assay. Format: in vitro ADME. The following applies: human liver microsomes 1 mg protein/ml, 1 uM compound, pH 7.4. As to the method:
The double time point high throughput screen for human liver microsomal metabolic stability is used to measure the in vitro metabolism of test compounds by human liver microsomal enzymes. The data collected are analyzed to calculate a half-life (t½, min) and clearance (expressed as percent hepatic blood flow, % QH) for test compounds. The assay is performed in 50 mM potassium phosphate buffer, pH 7.4 and 2.5 mM NADPH. Test samples are dissolved in DMSO and acetonitrile for a final assay concentration of 1 uM. Human liver microsomes are diluted in assay buffer to a final assay concentration of 1 mg protein/ml. Compound solution and microsome suspension are added to assay buffer for a final incubation volume of 350 ul. The preparation is incubated for 5 min in a 37° C. water bath. The reaction is started by the addition of NADPH. Volumes of 80 ul are removed from the incubation mix at 0, 5, and 30 min after the start of the reaction and added to 160 ul acetonitrile. The supernatant is transferred to 0.25 mm glass fiber filter plates and centrifuged for 5 min at 3000 rpm. Injection volumes of 10 ul are typically added to HPLC columns with formic acid in water or acetonitrile at a flow rate of 0.3 ml/min. Percent loss of parent compound is calculated from the area under each time point to determine the half-life and clearance. Preferred compounds of the invention will have a human liver microsomal stability of <25% QH.
In general terms: Liver microsomes are vesicles of endoplasmic reticulum, rich in cytochrome P450 enzymes.

Series [4] can be described thus: Aqueous (equilibrium) solubility assay. The following applies: aqueous buffer, thermodynamic from solid, 48 hrs equilibrium. It is filed as physicochemical. As to the method:
The equilibrium solubility of compounds is determined in pH 2, 4.5, 6.8 buffers. Prior to solubility measurement, the crystalline/amorphous characteristics of the sample are determined by observing the powder form under polarized light microscope. Solubility is only measured when compound is crystalline.
Approximately 2 mg of compound are weighed out into a vial and 1-2 ml of buffer are added into the vial (pHs 2 & 4.5, use 1 ml and for pHs 6.8 and 7.4 use 2 ml of buffer). The vial is rotated for 48 hrs protected from light. After 48 hrs, the sample is transferred into an eppendorf tube and centrifuged for 10 minutes at 14,000 RPM, if the supernatant is not clear, it is filtered (PVDF filter). The clear supernatant is diluted if necessary, before analyzing via HPLC. The final pH of the supernatant or the filtrate is measured and reported. The external calibration curve is used to determine the solubility value. The percentage of extraneous peaks relative to the parent peak is monitored in the standard solution as well as the solubility sample. Preferred compounds of the invention will have a solubility of >100 μg/ml.

Series [5] deals with Salmonella bacterial strains TA98 and TA100. Put plainly: Ames mutagenicity assay: bacteria reverse mutation screening assay. Format: cell-based. The settings on record: TA98 and TA100, presence or absence of S9. As to the method: The Ames ^(1) Salmonella bacterial strains used in the abbreviated screening assay ^(2) are TA98 and TA100. Actively growing (log phase) bacteria are incubated with test compound and trace amounts of histidine in the presence or absence of S9 for 48 hours on minimal agar plates. Test compound is dissolved in DMSO to a final concentration of 100 mg/ml. The stock is serially diluted to yield concentrations of 100, 50, 25 12.5 and 6.3 mg/ml. Fifty microliters of dosing solution is combined with top agar and buffer (or S9 mix) and poured on duplicate plates to yield effective doses of 5000, 2500, 1250, 625 and 313 μg/plate. Positive and negative controls plates are included. Formation of colonies after 48 hr incubation at 37° C. is an indication of genetic reversion, either arising spontaneously or caused by the test compound. The average number of spontaneous colonies growing on control plates is compared to the number of colonies on test plates. A fold increase of 2-3× over background is generally considered a positive response for mutagenicity. • 1. Maron, D. M. and Ames, B. N. (1983). “Revised Methods for the Salmonella Mutagenicity Test”. Mutat. Res. 113, 173-215. • 2. D. A. Burke, D. J. Wedd, and B. Burlinson (1996). “Use of the Miniscreen assay to screen novel compounds for bacterial mutagenicity in the pharmaceutical industry”. Mutagenesis 11: 201-205.
A general note: In the Ames test, an excess of revertant colonies over the control signals mutagenicity.

Setting [6] is: pH 4.5 buffer, read-out: solubility at pH 4.5.
Where [7] appears, read: pH 6.8 buffer, read-out: solubility at pH 6.8.

T2 sequence (P21554 whole entry): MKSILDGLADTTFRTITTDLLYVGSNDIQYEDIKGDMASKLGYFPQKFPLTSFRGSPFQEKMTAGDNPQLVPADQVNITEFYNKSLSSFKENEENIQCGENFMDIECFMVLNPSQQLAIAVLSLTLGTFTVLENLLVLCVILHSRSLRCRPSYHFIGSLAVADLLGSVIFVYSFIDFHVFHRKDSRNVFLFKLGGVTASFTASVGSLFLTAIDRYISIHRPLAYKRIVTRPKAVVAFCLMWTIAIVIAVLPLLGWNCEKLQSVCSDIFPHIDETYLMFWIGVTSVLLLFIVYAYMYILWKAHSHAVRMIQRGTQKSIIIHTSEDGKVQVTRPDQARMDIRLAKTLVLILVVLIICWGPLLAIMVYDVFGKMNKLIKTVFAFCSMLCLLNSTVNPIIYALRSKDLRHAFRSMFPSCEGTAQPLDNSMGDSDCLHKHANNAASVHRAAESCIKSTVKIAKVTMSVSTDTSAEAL
T1 sequence (P34972 whole entry): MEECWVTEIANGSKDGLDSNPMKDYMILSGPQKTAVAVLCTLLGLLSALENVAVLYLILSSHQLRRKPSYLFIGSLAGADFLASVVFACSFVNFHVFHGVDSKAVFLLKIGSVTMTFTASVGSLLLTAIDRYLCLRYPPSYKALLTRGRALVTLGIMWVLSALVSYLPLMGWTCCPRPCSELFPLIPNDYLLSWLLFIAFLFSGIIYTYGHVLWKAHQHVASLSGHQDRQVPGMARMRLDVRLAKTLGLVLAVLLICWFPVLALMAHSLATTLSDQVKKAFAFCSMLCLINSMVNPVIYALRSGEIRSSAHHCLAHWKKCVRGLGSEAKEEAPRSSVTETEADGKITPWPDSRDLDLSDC

Consider `CC(C)(C)n1nnc(NC(=O)C(C)(C)S(=O)(=O)CC2CCOCC2)n1` [Table II compound 2], for which the EC50 is 0.05 µM in series [1]; greater than 50 µM in series [2] (CB1 CAMP EC50, Table XI); greater than 50 µM in series [2] (CB1 EC50, Table II). The “HLM clearance (percent hepatic blood flow)” value in series [3] is recorded as less than 30.10 QH %. In addition, the solubility at 48 h in series [4] (setting [6]) was determined as 391 µg/mL (≈ 1050 µM); in series [4] (setting [7]), 353 µg/mL (≈ 945 µM). The Ames entry in series [5] was “negative”.
As for `CCC(C)S(=O)(=O)C(C)(C)C(=O)Nc1cc(C(C)(C)C)nn1C` (stereo not shown) [Example 43 WO08039645], the EC50 is 0.642 µM in series [1] (Table XI, CHO cells expressing human CB2R, forskolin-stimulated cAMP, read-out: CB2 CAMP EC50) and greater than 20 µM in series [2] (Table XI, read-out: CB1 CAMP EC50). The “HLM clearance (percent hepatic blood flow)” value in series [3] came out at 61 QH %. For the same compound, the solubility at 48 h in series [4] (setting [6]) came out at 1260 µg/mL (≈ 3680 µM); in series [4] (setting [7]) it was 1160 µg/mL (≈ 3370 µM). Further, in series [5], the Ames entry was “positive”.
Take `CC(C)(C)c1csc(NC(=O)C(C)(C)S(=O)(=O)c2ccc(F)cc2)n1` [Example 252 WO08014199]: the EC50 in series [1] is 0.000401 µM; in series [2] (CB1 CAMP EC50, Table XI), 0.934 µM. Further, the “HLM clearance (percent hepatic blood flow)” value in series [3] was determined as 85 QH %. For the same compound, the solubility at 48 h in series [4] (setting [6]) amounted to 1.74 µg/mL (≈ 4.53 µM); in series [4] (setting [7]), 1.62 µg/mL (≈ 4.21 µM). The Ames result in series [5] is reported as “negative”.
In the case of `CC(C)(C)c1cc(NC(=O)C(C)(C)S(=O)(=O)C2CCOCC2)no1` [Example 66 WO08039645], the EC50 in series [1] is 0.00072 µM; in series [2] (CB1 CAMP EC50, Table XI), greater than 50 µM. For the same compound, in series [3], the “HLM clearance (percent hepatic blood flow)” value is on record as 57 QH %. The solubility at 48 h was determined as 56 µg/mL (≈ 156 µM) in series [4] (setting [6]) and 53 µg/mL (≈ 148 µM) in series [4] (setting [7]). The Ames result in series [5] is reported as “negative”.
Take `CC(C)(C)c1cc(NC(=O)C(C)(C)S(=O)(=O)c2ccc(F)cc2)on1` [Example 248 WO08014199]: the EC50 in series [1] amounted to 0.00098 µM; in series [2] (CB1 CAMP EC50, Table XI), 3.29 µM. In series [3], the “HLM clearance (percent hepatic blood flow)” value worked out at 32 QH %. In addition, the solubility at 48 h was determined as 1.68 µg/mL (≈ 4.56 µM) in series [4] (setting [6]) and 1.25 µg/mL (≈ 3.39 µM) in series [4] (setting [7]). Also, in series [5], the Ames result is “negative”.

By EC50 is commonly meant the concentration needed to bring the measured effect to its halfway point. By solubility is commonly meant the concentration that dissolves in the medium under given conditions.
